Source: US9809578B2, “Pyrazolyl urea, thiourea, guanidine and cyanoguanidine compounds as trkA kinase inhibitors” (Array BioPharma Inc., priority 2012, dated 2017)

Assays:
Format in all cases: biochemical
Conditions in all cases: 10 μM, ATP near Km
SRPK2 = biological target: T1, SRPK2 (Homo sapiens, UniProt P78362); test: KinaseProfiler SRPK2
T1 construct: purchased Millipore, Inc. (KinaseProfiler service)
Text: (§1) The compound was run in duplicate at a concentration of ATP near the Km for each individual kinase according to Millipore's specifications.

KDR = biological target: T2, KDR (Homo sapiens, UniProt P35968); test: KinaseProfiler KDR
T2 construct: purchased Millipore, Inc. (KinaseProfiler service)
Text: as §1

CAMK2d = biological target: T3, CAMK2d (Homo sapiens, UniProt Q13557); test: KinaseProfiler CAMK2d
T3 construct: purchased Millipore (KinaseProfiler service)
Text: as §1

PDK1 = biological target: T4, PDK1 (Homo sapiens, UniProt O15530); test: KinaseProfiler PDK1
T4 construct: purchased Millipore, Inc. (KinaseProfiler service)
Text: as §1

TrkB = biological target: T5, TrkB (Homo sapiens, UniProt Q16620); test: KinaseProfiler TrkB
T5 construct: purchased Millipore, Inc. (KinaseProfiler service)
Text: as §1

ULK3 = biological target: T6, ULK3 (Homo sapiens, UniProt Q6PHR2); test: KinaseProfiler ULK3
T6 construct: purchased Millipore, Inc. (KinaseProfiler service)
Text: as §1

CLK2 = biological target: T7, CLK2 (Homo sapiens, UniProt P49760); test: KinaseProfiler CLK2
T7 construct: purchased Millipore, Inc. (KinaseProfiler service)
Text: as §1

PKD1 = biological target: T8, PKD1 (Homo sapiens, UniProt Q15139); test: KinaseProfiler PKD1
T8 construct: purchased Millipore, Inc. (KinaseProfiler service)
Text: as §1

GSK3beta = biological target: T9, GSK3beta (Homo sapiens, UniProt P49841); test: KinaseProfiler GSK3beta
T9 construct: purchased Millipore, Inc. (KinaseProfiler service)
Text: as §1

TEC Activated = biological target: T10, TEC Activated (Homo sapiens, UniProt P42680); test: KinaseProfiler TEC Activated
T10 construct: purchased Millipore, Inc. (KinaseProfiler service)
Text: as §1

MAPKAP-K5 = biological target: T11, MAPKAP-K5 (Homo sapiens, UniProt Q8IW41); test: KinaseProfiler MAPKAP-K5
T11 construct: purchased Millipore, Inc. (KinaseProfiler service)
Text: as §1

MKK7beta = biological target: T12, MKK7beta (Homo sapiens, UniProt O14733); test: KinaseProfiler MKK7beta
T12 construct: purchased Millipore, Inc. (KinaseProfiler service)
Text: as §1

Rsk4 = biological target: T13, Rsk4 (Homo sapiens, UniProt Q9UK32); test: KinaseProfiler Rsk4
T13 construct: purchased Millipore, Inc. (KinaseProfiler service)
Text: as §1

FGFR1 = biological target: T14, FGFR1 (Homo sapiens, UniProt P11362); test: KinaseProfiler FGFR1
T14 construct: purchased Millipore, Inc. (KinaseProfiler service)
Text: as §1

CDK2/cyclinE = biological target: T15, CDK2/cyclinE (Homo sapiens, UniProt P24941); test: KinaseProfiler CDK2/cyclinE
T15 construct: purchased Millipore, Inc. (KinaseProfiler service)
Text: as §1

TBK1 = biological target: T16, TBK1 (Homo sapiens, UniProt Q9UHD2); test: KinaseProfiler TBK1
T16 construct: purchased Millipore, Inc. (KinaseProfiler service)
Text: as §1

IGF-1R Activated = biological target: T17, IGF-1R Activated (Homo sapiens, UniProt P08069); test: KinaseProfiler IGF-1R Activated
T17 construct: purchased Millipore, Inc. (KinaseProfiler service)
Text: as §1

MEK1 = biological target: T18, MEK1 (Homo sapiens, UniProt Q02750); test: KinaseProfiler MEK1
T18 construct: purchased Millipore, Inc. (KinaseProfiler service)
Text: as §1

AKT3 = biological target: T19, AKT3 (Homo sapiens, UniProt Q9Y243); test: KinaseProfiler AKT3
T19 construct: purchased Millipore (KinaseProfiler service)
Text: as §1

CAMK4 = biological target: T20, CAMK4 (Homo sapiens, UniProt Q16566); test: KinaseProfiler CAMK4
T20 construct: purchased Millipore (KinaseProfiler service)
Text: as §1

Syk = biological target: T21, Syk (Homo sapiens, UniProt P43405); test: KinaseProfiler Syk
T21 construct: purchased Millipore, Inc. (KinaseProfiler service)
Text: as §1

TAK1 = biological target: T22, TAK1 (Homo sapiens, UniProt O43318); test: KinaseProfiler TAK1
T22 construct: purchased Millipore, Inc. (KinaseProfiler service)
Text: as §1

TSSK1 = biological target: T23, TSSK1 (Homo sapiens, UniProt Q9BXA7); test: KinaseProfiler TSSK1
T23 construct: purchased Millipore, Inc. (KinaseProfiler service)
Text: as §1

Plk3 = biological target: T24, Plk3 (Homo sapiens, UniProt Q9H4B4); test: KinaseProfiler Plk3
T24 construct: purchased Millipore, Inc. (KinaseProfiler service)
Text: as §1

PKCeta = biological target: T25, PKCeta (Homo sapiens, UniProt P24723); test: KinaseProfiler PKCeta
T25 construct: purchased Millipore, Inc. (KinaseProfiler service)
Text: as §1

BrSK1 = biological target: T26, BrSK1 (Homo sapiens, UniProt Q8TDC3); test: KinaseProfiler BrSK1
T26 construct: purchased Millipore (KinaseProfiler service)
Text: as §1

DDR2 = biological target: T27, DDR2 (Homo sapiens, UniProt Q16832); test: KinaseProfiler DDR2
T27 construct: purchased Millipore, Inc. (KinaseProfiler service)
Text: as §1

TAO2 = biological target: T28, TAO2 (Homo sapiens, UniProt Q9UL54); test: KinaseProfiler TAO2
T28 construct: purchased Millipore, Inc. (KinaseProfiler service)
Text: as §1

GSK3alpha = biological target: T29, GSK3alpha (Homo sapiens, UniProt P49840); test: KinaseProfiler GSK3alpha
T29 construct: purchased Millipore, Inc. (KinaseProfiler service)
Text: as §1

BTK = biological target: T30, BTK (Homo sapiens, UniProt Q06187); test: KinaseProfiler BTK
T30 construct: purchased Millipore (KinaseProfiler service)
Text: as §1

IRAK1 = biological target: T31, IRAK1 (Homo sapiens, UniProt P51617); test: KinaseProfiler IRAK1
T31 construct: purchased Millipore, Inc. (KinaseProfiler service)
Text: as §1

MSK2 = biological target: T32, MSK2 (Homo sapiens, UniProt O75676); test: KinaseProfiler MSK2
T32 construct: purchased Millipore, Inc. (KinaseProfiler service)
Text: as §1

PRKG1alpha = biological target: T33, PRKG1alpha (Homo sapiens, UniProt Q13976); test: KinaseProfiler PRKG1alpha
T33 construct: purchased Millipore, Inc. (KinaseProfiler service)
Text: as §1

Ron = biological target: T34, Ron (Homo sapiens, UniProt Q04912); test: KinaseProfiler Ron
T34 construct: purchased Millipore, Inc. (KinaseProfiler service)
Text: as §1

CAMK1d = biological target: T35, CAMK1d (Homo sapiens, UniProt Q8IU85); test: KinaseProfiler CAMK1d
T35 construct: purchased Millipore (KinaseProfiler service)
Text: as §1

Rsk3 = biological target: T36, Rsk3 (Homo sapiens, UniProt Q15349); test: KinaseProfiler Rsk3
T36 construct: purchased Millipore, Inc. (KinaseProfiler service)
Text: as §1

WNK2 = biological target: T37, WNK2 (Homo sapiens, UniProt Q9Y3S1); test: KinaseProfiler WNK2
T37 construct: purchased Millipore, Inc. (KinaseProfiler service)
Text: as §1

MAP4K2 = biological target: T38, MAP4K2 (Homo sapiens, UniProt Q12851); test: KinaseProfiler MAP4K2
T38 construct: purchased Millipore, Inc. (KinaseProfiler service)
Text: as §1

PKCgamma = biological target: T39, PKCgamma (Homo sapiens, UniProt P05129); test: KinaseProfiler PKCgamma
T39 construct: purchased Millipore, Inc. (KinaseProfiler service)
Text: as §1

IR Activated = biological target: T40, IR Activated (Homo sapiens, UniProt P06213); test: KinaseProfiler IR Activated
T40 construct: purchased Millipore, Inc. (KinaseProfiler service)
Text: as §1

Plk2 = biological target: T41, Plk2 (Homo sapiens, UniProt Q9NYY3); test: KinaseProfiler Plk2
T41 construct: purchased Millipore, Inc. (KinaseProfiler service)
Text: as §1

IKKbeta = biological target: T42, IKKbeta (Homo sapiens, UniProt O14920); test: KinaseProfiler IKKbeta
T42 construct: purchased Millipore, Inc. (KinaseProfiler service)
Text: as §1

ZAP-70 = biological target: T43, ZAP-70 (Homo sapiens, UniProt P43403); test: KinaseProfiler ZAP-70
T43 construct: purchased Millipore, Inc. (KinaseProfiler service)
Text: as §1

T32 sequence (O75676 whole entry): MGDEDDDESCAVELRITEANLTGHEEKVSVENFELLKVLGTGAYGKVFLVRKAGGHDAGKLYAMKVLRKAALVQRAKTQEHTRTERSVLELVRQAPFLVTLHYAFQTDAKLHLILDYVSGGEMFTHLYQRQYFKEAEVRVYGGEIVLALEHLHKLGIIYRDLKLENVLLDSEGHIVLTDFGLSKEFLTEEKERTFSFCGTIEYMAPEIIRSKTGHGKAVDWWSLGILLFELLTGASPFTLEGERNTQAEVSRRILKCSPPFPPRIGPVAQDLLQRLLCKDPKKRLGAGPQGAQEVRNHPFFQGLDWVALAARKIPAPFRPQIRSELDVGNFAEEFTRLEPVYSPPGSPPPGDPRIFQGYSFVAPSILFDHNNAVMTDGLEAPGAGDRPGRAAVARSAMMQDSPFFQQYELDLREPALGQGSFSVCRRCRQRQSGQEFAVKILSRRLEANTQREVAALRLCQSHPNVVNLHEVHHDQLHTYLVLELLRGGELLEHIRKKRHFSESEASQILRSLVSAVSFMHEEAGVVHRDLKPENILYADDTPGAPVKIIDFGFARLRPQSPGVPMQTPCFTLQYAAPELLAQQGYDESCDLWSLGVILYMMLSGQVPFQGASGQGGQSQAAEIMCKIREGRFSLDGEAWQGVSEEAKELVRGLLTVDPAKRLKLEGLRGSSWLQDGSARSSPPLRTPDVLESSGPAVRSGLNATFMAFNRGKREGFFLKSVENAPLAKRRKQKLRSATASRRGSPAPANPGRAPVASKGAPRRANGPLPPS
T36 sequence (Q15349 whole entry): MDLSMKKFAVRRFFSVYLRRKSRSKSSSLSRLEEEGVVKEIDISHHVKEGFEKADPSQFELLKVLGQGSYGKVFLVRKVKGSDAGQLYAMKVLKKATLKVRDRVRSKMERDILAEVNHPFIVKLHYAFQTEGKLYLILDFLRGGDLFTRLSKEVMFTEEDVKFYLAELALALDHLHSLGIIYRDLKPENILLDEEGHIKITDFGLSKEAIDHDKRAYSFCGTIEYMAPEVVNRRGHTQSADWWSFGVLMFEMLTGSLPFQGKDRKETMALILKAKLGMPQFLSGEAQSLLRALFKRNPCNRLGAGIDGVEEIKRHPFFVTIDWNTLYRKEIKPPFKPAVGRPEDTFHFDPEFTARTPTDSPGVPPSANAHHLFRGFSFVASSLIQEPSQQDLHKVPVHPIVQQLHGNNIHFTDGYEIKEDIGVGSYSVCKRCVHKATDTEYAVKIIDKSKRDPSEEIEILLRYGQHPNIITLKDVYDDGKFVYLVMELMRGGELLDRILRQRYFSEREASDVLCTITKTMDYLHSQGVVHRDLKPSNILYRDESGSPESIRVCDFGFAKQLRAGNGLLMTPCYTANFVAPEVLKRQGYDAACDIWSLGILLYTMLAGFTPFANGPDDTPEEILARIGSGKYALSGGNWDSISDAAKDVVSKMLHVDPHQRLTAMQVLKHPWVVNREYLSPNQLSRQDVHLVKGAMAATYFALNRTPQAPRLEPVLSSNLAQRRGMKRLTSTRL
T31 sequence (P51617 whole entry): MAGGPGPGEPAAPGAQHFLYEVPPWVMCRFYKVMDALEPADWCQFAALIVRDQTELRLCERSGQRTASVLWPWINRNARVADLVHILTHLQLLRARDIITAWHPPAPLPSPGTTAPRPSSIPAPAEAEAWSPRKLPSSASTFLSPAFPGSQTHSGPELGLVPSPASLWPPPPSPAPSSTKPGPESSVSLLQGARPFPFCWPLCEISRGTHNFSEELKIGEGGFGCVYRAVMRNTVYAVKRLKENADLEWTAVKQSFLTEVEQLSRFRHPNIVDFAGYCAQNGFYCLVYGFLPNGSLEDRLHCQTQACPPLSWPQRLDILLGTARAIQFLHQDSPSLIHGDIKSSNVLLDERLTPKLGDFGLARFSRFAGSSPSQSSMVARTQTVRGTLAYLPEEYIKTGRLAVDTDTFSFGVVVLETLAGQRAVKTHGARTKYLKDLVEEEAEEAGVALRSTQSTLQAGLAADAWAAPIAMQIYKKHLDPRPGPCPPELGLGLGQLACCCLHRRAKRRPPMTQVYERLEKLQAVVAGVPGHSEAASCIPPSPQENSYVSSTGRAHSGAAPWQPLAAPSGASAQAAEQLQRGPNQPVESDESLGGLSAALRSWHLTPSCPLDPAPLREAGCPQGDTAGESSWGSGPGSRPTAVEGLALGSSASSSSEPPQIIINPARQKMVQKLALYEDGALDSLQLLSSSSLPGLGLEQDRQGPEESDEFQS
T17 sequence (P08069 959-1367 limits assumed): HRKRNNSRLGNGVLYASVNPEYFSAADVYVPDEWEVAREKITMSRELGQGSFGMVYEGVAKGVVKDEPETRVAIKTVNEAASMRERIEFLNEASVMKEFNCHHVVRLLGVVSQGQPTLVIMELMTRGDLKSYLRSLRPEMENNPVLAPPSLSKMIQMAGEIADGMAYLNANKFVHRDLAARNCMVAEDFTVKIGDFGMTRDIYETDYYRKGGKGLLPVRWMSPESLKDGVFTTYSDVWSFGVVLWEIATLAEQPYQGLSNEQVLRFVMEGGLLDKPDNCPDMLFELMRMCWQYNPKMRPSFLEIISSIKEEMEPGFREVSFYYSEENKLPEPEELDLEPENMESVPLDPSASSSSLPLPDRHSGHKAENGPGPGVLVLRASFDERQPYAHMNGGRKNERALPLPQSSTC
T41 sequence (Q9NYY3 whole entry): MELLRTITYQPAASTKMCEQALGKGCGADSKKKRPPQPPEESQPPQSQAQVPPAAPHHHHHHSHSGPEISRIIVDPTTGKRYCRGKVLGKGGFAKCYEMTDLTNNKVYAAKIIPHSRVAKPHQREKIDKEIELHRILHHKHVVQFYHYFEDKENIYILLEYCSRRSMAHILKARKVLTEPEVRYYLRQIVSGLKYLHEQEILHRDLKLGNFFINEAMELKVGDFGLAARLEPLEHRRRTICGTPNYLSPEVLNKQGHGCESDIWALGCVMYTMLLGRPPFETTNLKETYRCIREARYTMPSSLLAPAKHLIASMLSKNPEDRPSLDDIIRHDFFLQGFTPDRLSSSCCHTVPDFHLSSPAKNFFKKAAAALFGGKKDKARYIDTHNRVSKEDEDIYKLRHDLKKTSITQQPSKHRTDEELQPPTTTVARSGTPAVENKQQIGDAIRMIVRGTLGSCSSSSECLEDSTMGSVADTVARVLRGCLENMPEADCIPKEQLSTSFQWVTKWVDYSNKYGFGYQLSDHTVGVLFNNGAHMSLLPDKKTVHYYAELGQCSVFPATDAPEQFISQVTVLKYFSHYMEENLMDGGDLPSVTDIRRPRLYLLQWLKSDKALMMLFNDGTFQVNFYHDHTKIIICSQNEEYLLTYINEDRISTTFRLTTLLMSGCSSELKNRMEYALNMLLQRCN
T38 sequence (Q12851 whole entry): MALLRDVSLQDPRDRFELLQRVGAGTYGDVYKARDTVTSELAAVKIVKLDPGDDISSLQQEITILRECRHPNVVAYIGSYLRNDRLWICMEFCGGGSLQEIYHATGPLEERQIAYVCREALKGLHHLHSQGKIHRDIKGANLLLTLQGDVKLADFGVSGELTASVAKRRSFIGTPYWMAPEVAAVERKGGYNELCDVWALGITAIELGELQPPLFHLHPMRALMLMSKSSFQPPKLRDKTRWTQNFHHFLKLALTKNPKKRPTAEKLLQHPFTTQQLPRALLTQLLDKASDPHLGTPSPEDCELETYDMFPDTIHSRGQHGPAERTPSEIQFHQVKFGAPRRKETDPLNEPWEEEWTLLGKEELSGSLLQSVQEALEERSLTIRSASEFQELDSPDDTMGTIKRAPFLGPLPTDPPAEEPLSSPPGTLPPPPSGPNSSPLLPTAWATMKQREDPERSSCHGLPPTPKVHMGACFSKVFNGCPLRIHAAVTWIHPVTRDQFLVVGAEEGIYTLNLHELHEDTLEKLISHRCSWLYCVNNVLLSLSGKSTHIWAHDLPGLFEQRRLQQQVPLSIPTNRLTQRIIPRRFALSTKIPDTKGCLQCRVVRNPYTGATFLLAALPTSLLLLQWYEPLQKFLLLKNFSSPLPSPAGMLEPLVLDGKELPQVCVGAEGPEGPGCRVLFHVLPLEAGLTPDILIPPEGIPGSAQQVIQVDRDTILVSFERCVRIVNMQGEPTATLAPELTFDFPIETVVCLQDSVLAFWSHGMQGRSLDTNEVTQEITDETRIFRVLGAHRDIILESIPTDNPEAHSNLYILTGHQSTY
T40 sequence (P06213 1005-1310 limits assumed): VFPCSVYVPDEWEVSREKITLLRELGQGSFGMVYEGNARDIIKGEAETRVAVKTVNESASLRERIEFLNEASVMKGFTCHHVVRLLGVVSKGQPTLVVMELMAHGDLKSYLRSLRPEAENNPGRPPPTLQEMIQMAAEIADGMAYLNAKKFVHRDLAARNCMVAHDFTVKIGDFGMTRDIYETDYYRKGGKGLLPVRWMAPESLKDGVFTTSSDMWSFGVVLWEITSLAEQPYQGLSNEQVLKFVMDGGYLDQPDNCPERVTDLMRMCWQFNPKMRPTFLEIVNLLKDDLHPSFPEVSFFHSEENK
T6 sequence (Q6PHR2 whole entry): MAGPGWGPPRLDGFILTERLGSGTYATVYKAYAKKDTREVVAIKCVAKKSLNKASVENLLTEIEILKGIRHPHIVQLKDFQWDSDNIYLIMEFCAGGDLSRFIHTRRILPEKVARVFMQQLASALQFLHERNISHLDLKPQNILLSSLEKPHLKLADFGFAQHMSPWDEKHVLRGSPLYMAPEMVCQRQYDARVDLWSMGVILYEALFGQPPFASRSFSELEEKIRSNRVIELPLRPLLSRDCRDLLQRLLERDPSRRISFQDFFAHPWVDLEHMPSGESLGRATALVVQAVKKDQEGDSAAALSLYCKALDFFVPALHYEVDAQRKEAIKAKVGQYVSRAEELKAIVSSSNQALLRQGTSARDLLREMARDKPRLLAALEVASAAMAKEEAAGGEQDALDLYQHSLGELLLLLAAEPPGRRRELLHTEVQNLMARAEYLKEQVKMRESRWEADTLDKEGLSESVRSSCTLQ

`Cc1c(-c2cnn(C)c2)nn(-c2ccccc2)c1NC(=O)Nc1cc(C(F)(F)F)nn1-c1ccccc1` [Example 3, 1-(1′,4-dimethyl-1-phenyl-1H,1′H-[3,4′-bipyrazol]-5-yl)-3-(1-phenyl-3-(trifluoromethyl)-1H-pyrazol-5-yl)urea] was tested, and the “Avg POC” value (SRPK2) was 112.5 POC, the “Avg POC” value (KDR) was 115.5 POC and the “Avg POC” value (CAMK2d) was 131 POC. The “Avg POC” value (PDK1) was 123 POC, the “Avg POC” value (TrkB) was 95 POC and the “Avg POC” value (ULK3) was 90.5 POC. For the same molecule, the “Avg POC” value (CLK2) was 135 POC, the “Avg POC” value (PKD1) was 100.5 POC and the “Avg POC” value (GSK3beta) was 195 POC. The “Avg POC” value (TEC Activated) was 144.5 POC, the “Avg POC” value (MAPKAP-K5) was 108.5 POC and the “Avg POC” value (MKK7beta) was 143.5 POC. The “Avg POC” value (Rsk4) was 99 POC, the “Avg POC” value (FGFR1) was 96 POC and the “Avg POC” value (CDK2/cyclinE) was 106.5 POC. The “Avg POC” value (TBK1) was 103 POC, the “Avg POC” value (IGF-1R Activated) was 87 POC and the “Avg POC” value (MEK1) was 111 POC. The “Avg POC” value (AKT3) was 99 POC, the “Avg POC” value (CAMK4) was 147.5 POC and the “Avg POC” value (Syk) was 101 POC. The “Avg POC” value (TAK1) was 94 POC, the “Avg POC” value (TSSK1) was 83.5 POC and the “Avg POC” value (Plk3) was 115 POC. The “Avg POC” value (PKCeta) was 94.5 POC, the “Avg POC” value (BrSK1) was 127 POC and the “Avg POC” value (DDR2) was 98 POC. For the same molecule, the “Avg POC” value (TAO2) was 108 POC, the “Avg POC” value (GSK3alpha) was 170 POC and the “Avg POC” value (BTK) was 123 POC. For the same molecule, the “Avg POC” value (IRAK1) was 102.5 POC, the “Avg POC” value (MSK2) was 119.5 POC and the “Avg POC” value (PRKG1alpha) was 108 POC. The “Avg POC” value (Ron) was 90.5 POC, the “Avg POC” value (CAMK1d) was 138 POC and the “Avg POC” value (Rsk3) was 104.5 POC. The “Avg POC” value (WNK2) was 120 POC, the “Avg POC” value (MAP4K2) was 113 POC and the “Avg POC” value (PKCgamma) was 100 POC. For the same molecule, the “Avg POC” value (IR Activated) was 99.5 POC, the “Avg POC” value (Plk2) was 106 POC and the “Avg POC” value (IKKbeta) was 123 POC. For the same molecule, the “Avg POC” value (ZAP-70) was 135 POC.
